From patent US9079854B2 (priority 2007, dated 2015) come the findings set out here.

The target in the assay is CB1 (Homo sapiens, UniProt P21554). The experiment in a line: CB1 functional assay, [35S]GTP-γ-S binding. It is filed as biochemical. Further details: purchased ES-110-MG; host or cells: CHO membrane extracts.

Read-outs that look alike come from different tables or passages of the source.

Sequence of CB1 (P21554 whole entry): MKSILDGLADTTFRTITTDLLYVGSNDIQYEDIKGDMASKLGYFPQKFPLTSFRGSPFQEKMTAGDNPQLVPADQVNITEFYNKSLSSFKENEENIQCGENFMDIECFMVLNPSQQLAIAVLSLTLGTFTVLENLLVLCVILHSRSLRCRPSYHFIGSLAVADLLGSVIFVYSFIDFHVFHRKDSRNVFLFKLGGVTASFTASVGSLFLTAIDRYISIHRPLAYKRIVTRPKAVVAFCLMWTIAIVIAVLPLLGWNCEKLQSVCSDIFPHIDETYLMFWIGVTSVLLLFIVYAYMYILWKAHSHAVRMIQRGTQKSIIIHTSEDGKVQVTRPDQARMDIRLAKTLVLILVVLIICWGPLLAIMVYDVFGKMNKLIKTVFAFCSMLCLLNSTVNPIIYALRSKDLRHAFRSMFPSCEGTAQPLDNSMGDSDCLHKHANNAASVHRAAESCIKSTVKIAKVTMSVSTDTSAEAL

As for `CCCCCCN1C(=O)/C(=N\NC(=O)c2ccccc2)c2ccccc21` [Example 6, Benzoic acid [1-n-hexyl-2-oxo-1,2-dihydro-indol-3-ylidene]-hydrazide], the “% Activation Average” value (CB1 Functional Activity) was 59.65%. Moreover, where the note is “CB1 Functional Activity”, the “Compound Activity” value is listed as “Agonist”. Besides, the EC50 (CB1 Functional Activity, read-out: EC50 (nM) for GTP Binding) was 867 nM; the concentration giving a half-maximal response (EC50) (Table 7, mean of two determinations, read-out: [35S]GTP-γ-S (hCB1) EC50 (nM ± SEM)) turned out to be 867 ± 1.1 nM; the EC50 (Table 9, mean of two determinations, read-out: [35S]GTP-γ-S hCB1 EC50 (nM ± SEM)) stood at 867 ± 1.1 nM. The Emax is, setting by setting: (Table 7, relative to the efficacy of CP55940) 59.7%; (Table 9, relative to the efficacy of CP 55,940) 59.7%.
